“And” between values parts separate entries of the source, which are not always exact repeats. Equal values may be shown once.
Tests used:
Assay in all cases: KINOMEscan competition binding
Conditions in all cases: compound 0.1 µM
BMP2K (human) = BMP2K (human) (UniProt Q9NSY1)
BMPR1A (human) = BMPR1A (human) (UniProt P36894)
BTK (human) = BTK (human) (UniProt Q06187)
CAMKK2 (human) = CAMKK2 (human) (UniProt Q96RR4)
CDK17 (human) = CDK17 (human) (UniProt Q00537)
CDK2 (human) = CDK2 (human) (UniProt P24941)
CDK3 (human) = CDK3 (human) (UniProt Q00526)
CDKL5 (human) = CDKL5 (human) (UniProt O76039)
CHUK (human) = CHUK (human) (UniProt O15111)
CSNK1G3 (human) = CSNK1G3 (human) (UniProt Q9Y6M4)
CSNK2A1 (human) = CSNK2A1 (human) (UniProt P68400)
[1] = system: EGFR (human), P00533 [T790M]
EPHA2 (human) = EPHA2 (human) (UniProt P29317)
FGFR3 (human) = FGFR3 (human) (UniProt P22607)
FLT3 (human) = FLT3 (human) (UniProt P36888)
IKBKE (human) = IKBKE (human) (UniProt Q14164)
ITK (human) = ITK (human) (UniProt Q08881)
[2] = system: KIT (human), P10721 [D816V]
[3] = system: KIT (human), P10721 [V559D]
MAP2K3 (human) = MAP2K3 (human) (UniProt P46734)
MAP3K6 (human) = MAP3K6 (human) (UniProt O95382)
MAP4K3 (human) = MAP4K3 (human) (UniProt Q8IVH8)
MAPK1 (human) = MAPK1 (human) (UniProt P28482)
MAPK10 (human) = MAPK10 (human) (UniProt P53779)
MAPK4 (human) = MAPK4 (human) (UniProt P31152)
MAST1 (human) = MAST1 (human) (UniProt Q9Y2H9)
MKNK2 (human) = MKNK2 (human) (UniProt Q9HBH9)
MYO3A (human) = MYO3A (human) (UniProt Q8NEV4)
NEK6 (human) = NEK6 (human) (UniProt Q9HC98)
PIK3C2B (human) = PIK3C2B (human) (UniProt O00750)
[4] = system: PIK3CA (human), P42336 [Q546K]
PIP4K2C (human) = PIP4K2C (human) (UniProt Q8TBX8)
PKN1 (human) = PKN1 (human) (UniProt Q16512)
PRKACB (human) = PRKACB (human) (UniProt P22694)
PRKCQ (human) = PRKCQ (human) (UniProt Q04759)
[5] = system: RET (human), P07949 [M918T]
[6] = system: RET (human), P07949 [V804M]
SGK3 (human) = SGK3 (human) (UniProt Q96BR1)
SRC (human) = SRC (human) (UniProt P12931)
SYK (human) = SYK (human) (UniProt P43405)
TNNI3K (human) = TNNI3K (human) (UniProt Q59H18)

Chain of FLT3 (human) (P36888 whole entry, looked up): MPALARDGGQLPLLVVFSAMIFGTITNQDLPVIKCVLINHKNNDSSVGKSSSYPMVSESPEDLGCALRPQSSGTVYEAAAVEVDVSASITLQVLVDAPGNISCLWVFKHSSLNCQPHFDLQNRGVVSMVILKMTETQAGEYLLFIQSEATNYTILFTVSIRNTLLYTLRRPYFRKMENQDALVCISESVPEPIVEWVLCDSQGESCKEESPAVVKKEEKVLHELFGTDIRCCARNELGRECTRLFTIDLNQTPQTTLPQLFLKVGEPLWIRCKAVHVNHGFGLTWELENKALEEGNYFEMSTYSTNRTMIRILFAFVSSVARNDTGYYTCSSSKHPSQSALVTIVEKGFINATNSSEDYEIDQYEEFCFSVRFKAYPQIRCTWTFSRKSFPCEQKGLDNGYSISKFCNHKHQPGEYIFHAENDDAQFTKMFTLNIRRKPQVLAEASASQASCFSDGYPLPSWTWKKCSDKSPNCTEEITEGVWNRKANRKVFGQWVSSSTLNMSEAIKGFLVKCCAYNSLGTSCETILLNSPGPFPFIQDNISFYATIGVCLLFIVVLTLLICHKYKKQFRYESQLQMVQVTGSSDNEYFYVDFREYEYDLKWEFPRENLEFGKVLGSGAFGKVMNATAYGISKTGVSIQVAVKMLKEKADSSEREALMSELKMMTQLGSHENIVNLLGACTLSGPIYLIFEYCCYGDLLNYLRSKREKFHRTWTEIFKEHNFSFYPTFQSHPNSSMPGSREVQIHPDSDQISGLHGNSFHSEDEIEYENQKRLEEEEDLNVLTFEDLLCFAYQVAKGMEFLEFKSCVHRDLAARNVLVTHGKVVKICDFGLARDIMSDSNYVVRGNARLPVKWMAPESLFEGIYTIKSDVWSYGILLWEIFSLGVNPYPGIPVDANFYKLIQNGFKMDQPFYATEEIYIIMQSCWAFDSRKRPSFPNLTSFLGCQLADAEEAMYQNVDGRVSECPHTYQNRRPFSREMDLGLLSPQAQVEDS
Chain of MAPK1 (human) (P28482 whole entry, looked up): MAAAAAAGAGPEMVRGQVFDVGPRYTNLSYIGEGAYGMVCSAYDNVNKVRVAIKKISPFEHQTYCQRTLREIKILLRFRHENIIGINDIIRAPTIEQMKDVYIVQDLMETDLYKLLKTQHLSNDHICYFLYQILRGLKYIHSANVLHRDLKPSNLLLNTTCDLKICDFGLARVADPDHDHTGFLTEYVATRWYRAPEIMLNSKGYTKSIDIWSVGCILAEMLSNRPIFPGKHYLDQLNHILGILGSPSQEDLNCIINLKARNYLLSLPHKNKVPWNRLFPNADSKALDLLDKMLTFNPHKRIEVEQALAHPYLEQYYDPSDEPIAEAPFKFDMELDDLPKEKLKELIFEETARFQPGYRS
Chain of MYO3A (human) (Q8NEV4 whole entry, looked up): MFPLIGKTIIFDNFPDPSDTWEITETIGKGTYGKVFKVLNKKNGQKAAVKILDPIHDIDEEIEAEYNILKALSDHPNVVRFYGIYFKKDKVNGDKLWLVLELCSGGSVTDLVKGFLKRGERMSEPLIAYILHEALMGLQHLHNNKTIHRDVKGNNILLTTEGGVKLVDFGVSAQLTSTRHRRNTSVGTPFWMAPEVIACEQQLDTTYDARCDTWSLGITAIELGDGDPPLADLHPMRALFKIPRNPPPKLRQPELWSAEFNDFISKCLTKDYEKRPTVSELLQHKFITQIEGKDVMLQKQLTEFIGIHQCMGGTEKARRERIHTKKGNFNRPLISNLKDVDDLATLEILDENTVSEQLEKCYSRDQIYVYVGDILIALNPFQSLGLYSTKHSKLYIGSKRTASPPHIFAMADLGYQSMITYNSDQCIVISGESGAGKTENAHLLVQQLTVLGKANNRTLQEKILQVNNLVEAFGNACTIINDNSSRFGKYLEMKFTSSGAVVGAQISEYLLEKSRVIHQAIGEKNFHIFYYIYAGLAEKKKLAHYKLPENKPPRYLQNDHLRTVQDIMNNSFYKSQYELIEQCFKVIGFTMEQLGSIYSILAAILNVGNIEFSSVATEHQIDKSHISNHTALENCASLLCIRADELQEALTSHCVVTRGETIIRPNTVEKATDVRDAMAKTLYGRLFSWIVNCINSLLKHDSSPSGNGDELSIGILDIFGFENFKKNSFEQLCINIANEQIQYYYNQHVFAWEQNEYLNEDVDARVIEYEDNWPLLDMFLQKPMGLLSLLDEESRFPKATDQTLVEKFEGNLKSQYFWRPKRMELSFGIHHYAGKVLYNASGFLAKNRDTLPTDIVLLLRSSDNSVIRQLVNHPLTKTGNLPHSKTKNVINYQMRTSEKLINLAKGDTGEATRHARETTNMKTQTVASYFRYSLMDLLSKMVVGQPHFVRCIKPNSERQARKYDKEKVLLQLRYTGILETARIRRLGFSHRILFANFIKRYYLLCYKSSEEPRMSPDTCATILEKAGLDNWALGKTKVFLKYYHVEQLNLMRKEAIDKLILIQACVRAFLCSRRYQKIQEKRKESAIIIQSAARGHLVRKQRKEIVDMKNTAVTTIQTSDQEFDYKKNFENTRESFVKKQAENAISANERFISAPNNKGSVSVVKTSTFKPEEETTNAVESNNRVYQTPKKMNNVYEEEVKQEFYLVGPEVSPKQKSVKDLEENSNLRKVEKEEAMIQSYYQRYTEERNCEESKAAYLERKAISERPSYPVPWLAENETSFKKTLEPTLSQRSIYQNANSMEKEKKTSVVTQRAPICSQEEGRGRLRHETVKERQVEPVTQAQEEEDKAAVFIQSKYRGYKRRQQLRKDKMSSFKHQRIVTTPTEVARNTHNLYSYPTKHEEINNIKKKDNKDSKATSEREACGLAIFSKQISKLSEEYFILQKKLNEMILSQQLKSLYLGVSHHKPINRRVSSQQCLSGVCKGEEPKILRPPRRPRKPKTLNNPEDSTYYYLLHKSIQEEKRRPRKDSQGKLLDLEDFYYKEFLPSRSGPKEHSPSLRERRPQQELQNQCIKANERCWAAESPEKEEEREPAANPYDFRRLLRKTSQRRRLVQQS
Chain of MAP2K3 (human) (P46734 whole entry, looked up): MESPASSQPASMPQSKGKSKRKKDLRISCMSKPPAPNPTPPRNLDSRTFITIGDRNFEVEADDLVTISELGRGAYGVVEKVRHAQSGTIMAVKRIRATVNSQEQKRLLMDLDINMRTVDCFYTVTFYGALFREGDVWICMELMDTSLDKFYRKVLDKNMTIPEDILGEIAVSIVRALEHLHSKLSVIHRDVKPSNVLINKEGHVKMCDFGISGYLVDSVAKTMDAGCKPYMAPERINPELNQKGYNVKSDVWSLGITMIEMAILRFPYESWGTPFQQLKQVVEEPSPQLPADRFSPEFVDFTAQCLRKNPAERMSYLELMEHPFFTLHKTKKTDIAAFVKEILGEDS
Chain of PIK3CA (human), P42336 [Q546K] (P42336 whole entry Q546K, looked up): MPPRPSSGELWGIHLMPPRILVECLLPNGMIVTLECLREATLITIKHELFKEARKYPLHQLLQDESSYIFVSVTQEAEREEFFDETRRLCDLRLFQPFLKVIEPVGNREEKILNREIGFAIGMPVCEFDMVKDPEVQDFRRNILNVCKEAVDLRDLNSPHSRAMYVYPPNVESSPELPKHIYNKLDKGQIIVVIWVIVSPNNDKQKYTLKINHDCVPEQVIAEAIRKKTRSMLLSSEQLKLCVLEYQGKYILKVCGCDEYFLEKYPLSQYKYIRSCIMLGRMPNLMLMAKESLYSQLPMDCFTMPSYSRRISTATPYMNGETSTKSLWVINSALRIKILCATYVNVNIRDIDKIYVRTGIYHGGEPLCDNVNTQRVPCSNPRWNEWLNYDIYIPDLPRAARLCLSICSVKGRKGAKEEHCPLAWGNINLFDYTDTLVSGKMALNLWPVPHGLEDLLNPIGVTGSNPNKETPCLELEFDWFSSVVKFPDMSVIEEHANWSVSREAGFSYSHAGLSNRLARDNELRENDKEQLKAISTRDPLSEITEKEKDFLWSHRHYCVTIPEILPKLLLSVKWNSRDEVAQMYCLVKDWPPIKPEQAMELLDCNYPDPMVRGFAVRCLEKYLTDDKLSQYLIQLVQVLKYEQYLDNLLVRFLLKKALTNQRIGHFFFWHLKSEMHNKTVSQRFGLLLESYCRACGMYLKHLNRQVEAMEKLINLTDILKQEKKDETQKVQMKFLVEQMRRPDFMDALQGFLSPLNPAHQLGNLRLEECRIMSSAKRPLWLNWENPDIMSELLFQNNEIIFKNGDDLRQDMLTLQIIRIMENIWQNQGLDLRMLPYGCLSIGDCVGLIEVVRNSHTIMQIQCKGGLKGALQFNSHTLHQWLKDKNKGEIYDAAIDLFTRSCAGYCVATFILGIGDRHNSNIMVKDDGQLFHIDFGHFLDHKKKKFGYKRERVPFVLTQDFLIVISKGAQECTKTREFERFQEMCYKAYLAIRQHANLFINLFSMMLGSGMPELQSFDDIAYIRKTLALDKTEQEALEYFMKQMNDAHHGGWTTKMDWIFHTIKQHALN
Chain of BTK (human) (Q06187 whole entry, looked up): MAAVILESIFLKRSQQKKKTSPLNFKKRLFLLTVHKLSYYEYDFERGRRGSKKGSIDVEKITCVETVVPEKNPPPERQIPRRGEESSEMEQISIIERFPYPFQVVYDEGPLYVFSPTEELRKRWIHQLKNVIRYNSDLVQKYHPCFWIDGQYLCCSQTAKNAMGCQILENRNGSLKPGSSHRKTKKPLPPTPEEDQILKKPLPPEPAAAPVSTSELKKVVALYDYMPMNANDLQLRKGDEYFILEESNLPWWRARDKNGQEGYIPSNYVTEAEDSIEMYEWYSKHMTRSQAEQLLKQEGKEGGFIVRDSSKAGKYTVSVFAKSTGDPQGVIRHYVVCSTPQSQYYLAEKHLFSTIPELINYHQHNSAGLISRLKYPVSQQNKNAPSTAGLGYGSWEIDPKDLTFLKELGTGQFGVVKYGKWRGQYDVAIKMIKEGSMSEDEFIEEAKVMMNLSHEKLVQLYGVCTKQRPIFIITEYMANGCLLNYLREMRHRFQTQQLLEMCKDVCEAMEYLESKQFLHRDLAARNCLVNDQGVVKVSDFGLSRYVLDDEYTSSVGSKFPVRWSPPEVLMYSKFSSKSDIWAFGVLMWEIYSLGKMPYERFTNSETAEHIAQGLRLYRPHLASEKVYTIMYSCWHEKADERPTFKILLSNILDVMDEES

**Q.** What does the source list for `CCc1ccc(C(=O)Nc2cc(CN3CCN(C)CC3)cc(C(F)(F)F)c2)cc1C#Cc1cnc2ccnn2c1`?
**A.** kinase still bound, per cent of control (BMP2K (human)): 86%; kinase still bound, per cent of control (BMPR1A (human)): 100%; kinase still bound, per cent of control (BTK (human)): 100%; kinase still bound, per cent of control (CAMKK2 (human)): 73%; kinase still bound, per cent of control (CDK17 (human)): 100%; kinase still bound, per cent of control (CDK2 (human)): 84%; kinase still bound, per cent of control (CDK3 (human)): 100%; kinase still bound, per cent of control (CDKL5 (human)): 100%; kinase still bound, per cent of control (CHUK (human)): 100%; kinase still bound, per cent of control (CSNK1G3 (human)): 78%; kinase still bound, per cent of control (CSNK2A1 (human)): 100%; kinase still bound, per cent of control [1]: 100%; kinase still bound, per cent of control (EPHA2 (human)): 80%; kinase still bound, per cent of control (FGFR3 (human)): 100%; kinase still bound, per cent of control (FLT3 (human)): 78% and 100%; kinase still bound, per cent of control (IKBKE (human)): 100%; kinase still bound, per cent of control (ITK (human)): 100%; kinase still bound, per cent of control [2]: 81%; kinase still bound, per cent of control [3]: 24%; kinase still bound, per cent of control (MAP2K3 (human)): 100%; kinase still bound, per cent of control (MAP3K6 (human)): 100%; kinase still bound, per cent of control (MAP4K3 (human)): 100%; kinase still bound, per cent of control (MAPK1 (human)): 100%; kinase still bound, per cent of control (MAPK10 (human)): 100%; kinase still bound, per cent of control (MAPK4 (human)): 90%; kinase still bound, per cent of control (MAST1 (human)): 100%; kinase still bound, per cent of control (MKNK2 (human)): 100%; kinase still bound, per cent of control (MYO3A (human)): 100%; kinase still bound, per cent of control (NEK6 (human)): 100%; kinase still bound, per cent of control (PIK3C2B (human)): 100%; kinase still bound, per cent of control [4]: 100%; kinase still bound, per cent of control (PIP4K2C (human)): 100%; kinase still bound, per cent of control (PKN1 (human)): 100%; kinase still bound, per cent of control (PRKACB (human)): 100%; kinase still bound, per cent of control (PRKCQ (human)): 80%; kinase still bound, per cent of control [5]: 46%; kinase still bound, per cent of control [6]: 80%; kinase still bound, per cent of control (SGK3 (human)): 100%; kinase still bound, per cent of control (SRC (human)): 76%; kinase still bound, per cent of control (SYK (human)): 83%; kinase still bound, per cent of control (TNNI3K (human)): 56%

Reference: the kinase profiling compilation of Christmann-Franck et al. (2016)
